Literature values in article PMC7397562 (Drug Design, Development and Therapy, 2020).

For `COc1ccc(-c2cc(=O)c3c(OC)c(OC)c(OC)c(OC)c3o2)cc1` [TAGE, tangeretin], the “Oral absolute bioavailability (mean value)” value is listed as < 3.05%.
